Results published in US20220050096A1, “ANALYTE-SENSITIVE PROBES AND CONTACT LENS FOR DIAGNOSIS OF OCULAR PATHOLOGIES” (University Of Maryland, Baltimore, priority 2020, published 2022).

Assay: Sodium-dependent intensity decays of SG in 20 mM MOPS buffer, 8 mM KCl
Assay type: physicochemical
Set-up: key to α1 / α2 / α3 / f1 / f2 / f3: fractional amplitudes (α) and intensity fractions (f); Σαi=1.0, Σfi=1.0
Procedure: Fluorescence Spectroscopic Measurements. Fluorescence intensities and intensity decays were measured using a Varian™ Eclipse 4 spectrofluorometer and a FluoTime300 instrument from PicoQuant™ (Berlin, Germany) and analyzed with the EasyTau™ software. The excitation source was a 473 nm laser diode with a repetition rate of 40 MHZ and a pulse width less than 100 ps. In other embodiments, the excitation source for SG-PL was at 495 nm from a Solea™ supercontinuum laser (PicoQuant™, Germany) and a 375 nm laser diode (PDL 375, PicoQuant™), a repetition rate of 40 MHz, and a pulse width less than 100 ps. Some intensity and lifetime measurements for SG-PL (as indicated) were performed using Alba V confocal fluorescence lifetime microscopy, FLIM (ISS, Urbana, Ill.), with excitation source of a 473 nm laser diode with a repetition rate of 40 MHz and a pulse width near 250 ps.
Intensity decays were measured at the emission maximum with the band of 10 to 20 nm, analyzed in terms of the multi-exponential model:
I(t)=Σαi exp(−t/ti) (equation 1)
where ti are the individual decay times and αi the initial time-zero amplitudes. The mean decay time can be represented in two ways. The average lifetime is given by:
where Σαi=1.0 and Σfi=1.0. The term fi=αi τi is proportional to the fractional contribution of each component to the total intensity decay. The term τi/Σαi τi is the fractional contribution to the steady state emission. Here, we use the amplitude-weighted lifetime given by
which is appropriate when the emission is from a single fluorophore with a changing quantum yield. For a single exponential decay, the lifetime is given by τ=1.0/(knr+Γ) and the quantum yield is given by Q=Γ/(knr+Γ) where knr is the sum of all non-radiative decay rates and Γ is the radiative decay rate. The value of Γ is determined by the molecular extinction coefficient that remains constant under most conditions. For a single type of fluorophore with a constant value of Γ the normalized αi values represent the molecular fraction of each decay time component. The value of αi and τi were determined by non-linear least squares fitting using PicoQuant™ software.
Three decay time components were required for the intensity decays. Fluorescence anisotropy decays were determined by individual measurements of the polarized intensity decays with corrections for the G-factor. Resolution of multi-exponential decays is not necessary. The average lifetime can be used as a single measurement. […]

[1] = NaCl 0 mM, 20 mM MOPS buffer 8 mM KCl
[2] = NaCl 5 mM, 20 mM MOPS buffer 8 mM KCl
[3] = NaCl 10 mM, 20 mM MOPS buffer 8 mM KCl
[4] = NaCl 20 mM, 20 mM MOPS buffer 8 mM KCl
[5] = NaCl 30 mM, 20 mM MOPS buffer 8 mM KCl
[6] = NaCl 50 mM, 20 mM MOPS buffer 8 mM KCl
[7] = NaCl 90 mM, 20 mM MOPS buffer 8 mM KCl
[8] = NaCl 150 mM, 20 mM MOPS buffer 8 mM KCl
[9] = NaCl 210 mM, 20 mM MOPS buffer 8 mM KCl

COc1cc(N2CCOCCOCCN(c3cc(OC)c(NC(=O)c4ccc(-c5c6cc(Cl)c(=O)cc-6oc6cc([O-])c(Cl)cc56)c(C(=O)[O-])c4)cc3OC)CCOCC2)c(OC)cc1NC(=O)c1ccc(-c2c3cc(Cl)c(=O)cc-3oc3cc([O-])c(Cl)cc23)c(C(=O)[O-])c1.C[N+](C)(C)C.C[N+](C)(C)C.C[N+](C)(C)C.C[N+](C)(C)C [SG]
f1 (NaCl 0 mM, MOPS buffer): 0.272 | f2 (NaCl 0 mM, MOPS buffer): 0.174 | f3 (NaCl 0 mM, MOPS buffer): 0.554 | α1 (NaCl 0 mM, MOPS buffer): 0.703 | α2 (NaCl 0 mM, MOPS buffer): 0.155 | α3 (NaCl 0 mM, MOPS buffer): 0.142 | τ1 (NaCl 0 mM, MOPS buffer): 0.36 ns | τ2 (NaCl 0 mM, MOPS buffer): 1.03 ns | τ3 (NaCl 0 mM, MOPS buffer): 3.59 ns | τf (NaCl 0 mM, MOPS buffer): 2.27 ns | τα (NaCl 0 mM, MOPS buffer): 0.92 ns | f1 [1]: 0.272 | f2 [1]: 0.174 | f3 [1]: 0.554 | α1 [1]: 0.703 | α2 [1]: 0.155 | α3 [1]: 0.142 | τ1 [1]: 0.36 ns | τ2 [1]: 1.03 ns | τ3 [1]: 3.59 ns | τf [1]: 2.27 ns | τα [1]: 0.92 ns | f1 (NaCl 5 mM, MOPS buffer): 0.111 | f2 (NaCl 5 mM, MOPS buffer): 0.223 | f3 (NaCl 5 mM, MOPS buffer): 0.666 | α1 (NaCl 5 mM, MOPS buffer): 0.439 | α2 (NaCl 5 mM, MOPS buffer): 0.244 | α3 (NaCl 5 mM, MOPS buffer): 0.317 | τ1 (NaCl 5 mM, MOPS buffer): 0.39 ns | τ2 (NaCl 5 mM, MOPS buffer): 1.44 ns | τ3 (NaCl 5 mM, MOPS buffer): 3.28 ns | τf (NaCl 5 mM, MOPS buffer): 2.55 ns | τα (NaCl 5 mM, MOPS buffer): 1.57 ns | f1 [2]: 0.111 | f2 [2]: 0.223 | f3 [2]: 0.666 | α1 [2]: 0.439 | α2 [2]: 0.244 | α3 [2]: 0.317 | τ1 [2]: 0.39 ns | τ2 [2]: 1.44 ns | τ3 [2]: 3.28 ns | τf [2]: 2.55 ns | τα [2]: 1.57 ns | f1 (NaCl 10 mM, MOPS buffer): 0.078 | f2 (NaCl 10 mM, MOPS buffer): 0.224 | f3 (NaCl 10 mM, MOPS buffer): 0.699 | α1 (NaCl 10 mM, MOPS buffer): 0.341 | α2 (NaCl 10 mM, MOPS buffer): 0.276 | α3 (NaCl 10 mM, MOPS buffer): 0.383 | τ1 (NaCl 10 mM, MOPS buffer): 0.40 ns | τ2 (NaCl 10 mM, MOPS buffer): 1.43 ns | τ3 (NaCl 10 mM, MOPS buffer): 3.22 ns | τf (NaCl 10 mM, MOPS buffer): 2.60 ns | τα (NaCl 10 mM, MOPS buffer): 1.77 ns | f1 [3]: 0.078 | f2 [3]: 0.224 | f3 [3]: 0.699 | α1 [3]: 0.341 | α2 [3]: 0.276 | α3 [3]: 0.383 | τ1 [3]: 0.40 ns | τ2 [3]: 1.43 ns | τ3 [3]: 3.22 ns | τf [3]: 2.60 ns | τα [3]: 1.77 ns | f1 (NaCl 20 mM, MOPS buffer): 0.094 | f2 (NaCl 20 mM, MOPS buffer): 0.355 | f3 (NaCl 20 mM, MOPS buffer): 0.551 | α1 (NaCl 20 mM, MOPS buffer): 0.324 | α2 (NaCl 20 mM, MOPS buffer): 0.353 | α3 (NaCl 20 mM, MOPS buffer): 0.323 | τ1 (NaCl 20 mM, MOPS buffer): 0.57 ns | τ2 (NaCl 20 mM, MOPS buffer): 2.00 ns | τ3 (NaCl 20 mM, MOPS buffer): 3.39 ns | τf (NaCl 20 mM, MOPS buffer): 2.63 ns | τα (NaCl 20 mM, MOPS buffer): 1.99 ns | f1 [4]: 0.094 | f2 [4]: 0.355 | f3 [4]: 0.551 | α1 [4]: 0.324 | α2 [4]: 0.353 | α3 [4]: 0.323 | τ1 [4]: 0.57 ns | τ2 [4]: 2.00 ns | τ3 [4]: 3.39 ns | τf [4]: 2.63 ns | τα [4]: 1.99 ns | f1 (NaCl 30 mM, MOPS buffer): 0.068 | f2 (NaCl 30 mM, MOPS buffer): 0.295 | f3 (NaCl 30 mM, MOPS buffer): 0.638 | α1 (NaCl 30 mM, MOPS buffer): 0.255 | α2 (NaCl 30 mM, MOPS buffer): 0.349 | α3 (NaCl 30 mM, MOPS buffer): 0.396 | τ1 (NaCl 30 mM, MOPS buffer): 0.54 ns | τ2 (NaCl 30 mM, MOPS buffer): 1.72 ns | τ3 (NaCl 30 mM, MOPS buffer): 3.27 ns | τf (NaCl 30 mM, MOPS buffer): 2.63 ns | τα (NaCl 30 mM, MOPS buffer): 2.03 ns | f1 [5]: 0.068 | f2 [5]: 0.295 | f3 [5]: 0.638 | α1 [5]: 0.255 | α2 [5]: 0.349 | α3 [5]: 0.396 | τ1 [5]: 0.54 ns | τ2 [5]: 1.72 ns | τ3 [5]: 3.27 ns | τf [5]: 2.63 ns | τα [5]: 2.03 ns | f1 (NaCl 50 mM, MOPS buffer): 0.081 | f2 (NaCl 50 mM, MOPS buffer): 0.349 | f3 (NaCl 50 mM, MOPS buffer): 0.570 | α1 (NaCl 50 mM, MOPS buffer): 0.259 | α2 (NaCl 50 mM, MOPS buffer): 0.380 | α3 (NaCl 50 mM, MOPS buffer): 0.361 | τ1 (NaCl 50 mM, MOPS buffer): 0.66 ns | τ2 (NaCl 50 mM, MOPS buffer): 1.95 ns | τ3 (NaCl 50 mM, MOPS buffer): 3.35 ns | τf (NaCl 50 mM, MOPS buffer): 2.64 ns | τα (NaCl 50 mM, MOPS buffer): 2.12 ns | f1 [6]: 0.081 | f2 [6]: 0.349 | f3 [6]: 0.570 | α1 [6]: 0.259 | α2 [6]: 0.380 | α3 [6]: 0.361 | τ1 [6]: 0.66 ns | τ2 [6]: 1.95 ns | τ3 [6]: 3.35 ns | τf [6]: 2.64 ns | τα [6]: 2.12 ns | f1 (NaCl 90 mM, MOPS buffer): 0.074 | f2 (NaCl 90 mM, MOPS buffer): 0.380 | f3 (NaCl 90 mM, MOPS buffer): 0.545 | α1 (NaCl 90 mM, MOPS buffer): 0.242 | α2 (NaCl 90 mM, MOPS buffer): 0.416 | α3 (NaCl 90 mM, MOPS buffer): 0.342 | τ1 (NaCl 90 mM, MOPS buffer): 0.64 ns | τ2 (NaCl 90 mM, MOPS buffer): 1.93 ns | τ3 (NaCl 90 mM, MOPS buffer): 3.36 ns | τf (NaCl 90 mM, MOPS buffer): 2.61 ns | τα (NaCl 90 mM, MOPS buffer): 2.11 ns | f1 [7]: 0.074 | f2 [7]: 0.380 | f3 [7]: 0.545 | α1 [7]: 0.242 | α2 [7]: 0.416 | α3 [7]: 0.342 | τ1 [7]: 0.64 ns | τ2 [7]: 1.93 ns | τ3 [7]: 3.36 ns | τf [7]: 2.61 ns | τα [7]: 2.11 ns | f1 (NaCl 150 mM, MOPS buffer): 0.116 | f2 (NaCl 150 mM, MOPS buffer): 0.699 | f3 (NaCl 150 mM, MOPS buffer): 0.185 | α1 (NaCl 150 mM, MOPS buffer): 0.305 | α2 (NaCl 150 mM, MOPS buffer): 0.605 | α3 (NaCl 150 mM, MOPS buffer): 0.091 | τ1 (NaCl 150 mM, MOPS buffer): 0.81 ns | τ2 (NaCl 150 mM, MOPS buffer): 2.48 ns | τ3 (NaCl 150 mM, MOPS buffer): 4.38 ns | τf (NaCl 150 mM, MOPS buffer): 2.64 ns | τα (NaCl 150 mM, MOPS buffer): 2.15 ns | f1 [8]: 0.116 | f2 [8]: 0.699 | f3 [8]: 0.185 | α1 [8]: 0.305 | α2 [8]: 0.605 | α3 [8]: 0.091 | τ1 [8]: 0.81 ns | τ2 [8]: 2.48 ns | τ3 [8]: 4.38 ns | τf [8]: 2.64 ns | τα [8]: 2.15 ns | f1 (NaCl 210 mM, MOPS buffer): 0.074 | f2 (NaCl 210 mM, MOPS buffer): 0.377 | f3 (NaCl 210 mM, MOPS buffer): 0.549 | α1 (NaCl 210 mM, MOPS buffer): 0.224 | α2 (NaCl 210 mM, MOPS buffer): 0.424 | α3 (NaCl 210 mM, MOPS buffer): 0.352 | τ1 (NaCl 210 mM, MOPS buffer): 0.70 ns | τ2 (NaCl 210 mM, MOPS buffer): 1.88 ns | τ3 (NaCl 210 mM, MOPS buffer): 3.29 ns | τf (NaCl 210 mM, MOPS buffer): 2.57 ns | τα (NaCl 210 mM, MOPS buffer): 2.12 ns | f1 [9]: 0.074 | f2 [9]: 0.377 | f3 [9]: 0.549 | α1 [9]: 0.224 | α2 [9]: 0.424 | α3 [9]: 0.352 | τ1 [9]: 0.70 ns | τ2 [9]: 1.88 ns | τ3 [9]: 3.29 ns | τf [9]: 2.57 ns | τα [9]: 2.12 ns
